Experimental data: ChEMBL document CHEMBL3885881, “DrugMatrix”

Species on record: Rattus norvegicus
Test: DrugMatrix - Regimen: Daily Repeat
Format: toxicity, organism-based, Sprague-Dawley
Set-up: regimen Daily Repeat, gender Male, age 6-8 weeks
Conditions: in vivo, po, route oral GAVAGE, […]; for ABSOLUTE BASOPHIL / ABSOLUTE EOSINOPHIL / ABSOLUTE LYMPHOCYTE / ABSOLUTE MONOCYTE / ABSOLUTE SEGMENTED NEUTROPHIL / BASOPHIL / EOSINOPHIL / ERYTHROCYTE COUNT / HEMATOCRIT / HEMOGLOBIN / LEUKOCYTE COUNT / LYMPHOCYTE / MEAN CORPUSCULAR HEMOGLOBIN / MEAN CORPUSCULAR HEMOGLOBIN CONCENTRATION / MEAN CORPUSCULAR VOLUME / MONOCYTE / NEUTROPHIL / NUCLEATED RED BLOOD CELLS / PLATELET COUNT: tissue Blood; for ALANINE AMINOTRANSFERASE / ALBUMIN / ALKALINE PHOSPHATASE / ASPARTATE AMINOTRANSFERASE / BLOOD UREA NITROGEN / CARBON DIOXIDE / CHLORIDE / CHOLESTEROL / CREATINE PHOSPHOKINASE / CREATININE / GLUCOSE / LACTATE DEHYDROGENASE / LIPASE / PHOSPHORUS / POTASSIUM / SODIUM / TOTAL BILIRUBIN / TOTAL PROTEIN / URIC ACID: tissue Plasma
[1] = 300 mg/kg, 120 h, dose level High, time 5 day
[2] = 72 h, dose 2.5 mg/Kg, dose level Low, time 3 day
[3] = 120 h, dose 2.5 mg/Kg, dose level Low, time 5 day

With CC(C)c1c(C(=O)Nc2ccccc2)c(-c2ccccc2)c(-c2ccc(F)cc2)n1CC[C@@H](O)C[C@@H](O)CC(=O)O [ATORVASTATIN] the “ABSOLUTE BASOPHIL” value [1] was 0 CELLS/uL, the “ABSOLUTE EOSINOPHIL” value [1] was 0 CELLS/uL and the “ABSOLUTE LYMPHOCYTE” value [1] was 8045.67 CELLS/uL. For the same molecule, the “ABSOLUTE MONOCYTE” value [1] was 74 CELLS/uL, the “ABSOLUTE SEGMENTED NEUTROPHIL” value [1] was 647 CELLS/uL and the BASOPHIL [1] was 0%. The EOSINOPHIL [1] was 0%, the “ERYTHROCYTE COUNT” value [1] was 6.15 x10E6/uL and the HEMATOCRIT [1] was 38.73%. For the same molecule, the HEMOGLOBIN [1] was 15.2 G/DL, the “LEUKOCYTE COUNT” value [1] was 8.77 x10E3/uL and the LYMPHOCYTE [1] was 92.33%. For the same molecule, the “MEAN CORPUSCULAR HEMOGLOBIN” value [1] was 24.73 pg, the “MEAN CORPUSCULAR HEMOGLOBIN CONCENTRATION” value [1] was 39.27 G/DL and the “MEAN CORPUSCULAR VOLUME” value [1] was 63.03 fL. For the same molecule, the MONOCYTE [1] was 0.67%, the NEUTROPHIL [1] was 7% and the “NUCLEATED RED BLOOD CELLS” value [1] was 0 /100WBC. For the same molecule, the “PLATELET COUNT” value [1] was 1244.33 x10E3/uL, the “ALANINE AMINOTRANSFERASE” value [1] was 175.67 u/L and the ALBUMIN [1] was 4.63 G/DL. The “ALKALINE PHOSPHATASE” value [1] was 577.33 u/L, the “ASPARTATE AMINOTRANSFERASE” value [1] was 151.33 u/L and the “BLOOD UREA NITROGEN” value [1] was 10.67 mg/dL. For the same molecule, the “CARBON DIOXIDE” value [1] was 24.67 mmol/L, the CHLORIDE [1] was 101.67 MEQ/L and the CHOLESTEROL [1] was 52.67 mg/dL. For the same molecule, the “CREATINE PHOSPHOKINASE” value [1] was 399.67 u/L, the CREATININE [1] was 0.22 mg/dL and the GLUCOSE [1] was 152.67 mg/dL. The “LACTATE DEHYDROGENASE” value [1] was 140.33 u/L, the LIPASE [1] was 60.67 u/L and the PHOSPHORUS [1] was 9.5 mg/dL. For the same molecule, the POTASSIUM [1] was 5.73 MEQ/L, the SODIUM [1] was 145.97 MEQ/L and the “TOTAL BILIRUBIN” value [1] was 0.37 mg/dL. For the same molecule, the “TOTAL PROTEIN” value [1] was 6.07 G/DL, the “URIC ACID” value [1] was 0.9 mg/dL and the “ABSOLUTE BASOPHIL” value [2] was 0 CELLS/uL. The “ABSOLUTE EOSINOPHIL” value [2] was 0 CELLS/uL, the “ABSOLUTE LYMPHOCYTE” value [2] was 8659.67 CELLS/uL and the “ABSOLUTE MONOCYTE” value [2] was 90 CELLS/uL. The “ABSOLUTE SEGMENTED NEUTROPHIL” value [2] was 583.67 CELLS/uL, the BASOPHIL [2] was 0% and the EOSINOPHIL [2] was 0%. The “ERYTHROCYTE COUNT” value [2] was 5.09 x10E6/uL, the HEMATOCRIT [2] was 32.3% and the HEMOGLOBIN [2] was 12.6 G/DL. The “LEUKOCYTE COUNT” value [2] was 9.33 x10E3/uL, the LYMPHOCYTE [2] was 92.67% and the “MEAN CORPUSCULAR HEMOGLOBIN” value [2] was 24.77 pg. The “MEAN CORPUSCULAR HEMOGLOBIN CONCENTRATION” value [2] was 39.03 G/DL, the “MEAN CORPUSCULAR VOLUME” value [2] was 63.43 fL and the MONOCYTE [2] was 1%. For the same molecule, the NEUTROPHIL [2] was 6.33%, the “NUCLEATED RED BLOOD CELLS” value [2] was 0 /100WBC and the “PLATELET COUNT” value [2] was 1132.33 x10E3/uL. The “ALANINE AMINOTRANSFERASE” value [2] was 62 u/L, the ALBUMIN [2] was 4.07 G/DL and the “ALKALINE PHOSPHATASE” value [2] was 560.67 u/L. For the same molecule, the “ASPARTATE AMINOTRANSFERASE” value [2] was 82.67 u/L, the “BLOOD UREA NITROGEN” value [2] was 12.33 mg/dL and the “CARBON DIOXIDE” value [2] was 26 mmol/L. The CHLORIDE [2] was 112 MEQ/L, the CHOLESTEROL [2] was 33.67 mg/dL and the “CREATINE PHOSPHOKINASE” value [2] was 218.33 u/L. The CREATININE [2] was 0.14 mg/dL, the GLUCOSE [2] was 166.67 mg/dL and the “LACTATE DEHYDROGENASE” value [2] was 156.33 u/L. It also gave an LIPASE [2] of 9.33 u/L, a PHOSPHORUS [2] of 9.23 mg/dL and a POTASSIUM [2] of 5.66 MEQ/L. For the same molecule, the SODIUM [2] was 156.57 MEQ/L, the “TOTAL BILIRUBIN” value [2] was 0.17 mg/dL and the “TOTAL PROTEIN” value [2] was 5.77 G/DL. The “URIC ACID” value [2] was 0.9 mg/dL, the “ABSOLUTE BASOPHIL” value [3] was 0 CELLS/uL and the “ABSOLUTE EOSINOPHIL” value [3] was 60.67 CELLS/uL. The “ABSOLUTE LYMPHOCYTE” value [3] was 7091.67 CELLS/uL, the “ABSOLUTE MONOCYTE” value [3] was 0 CELLS/uL and the “ABSOLUTE SEGMENTED NEUTROPHIL” value [3] was 581 CELLS/uL. For the same molecule, the BASOPHIL [3] was 0%, the EOSINOPHIL [3] was 0.67% and the “ERYTHROCYTE COUNT” value [3] was 5.48 x10E6/uL. For the same molecule, the HEMATOCRIT [3] was 34.67%, the HEMOGLOBIN [3] was 13.4 G/DL and the “LEUKOCYTE COUNT” value [3] was 7.73 x10E3/uL. For the same molecule, the LYMPHOCYTE [3] was 91.67%, the “MEAN CORPUSCULAR HEMOGLOBIN” value [3] was 24.53 pg and the “MEAN CORPUSCULAR HEMOGLOBIN CONCENTRATION” value [3] was 38.7 G/DL. For the same molecule, the “MEAN CORPUSCULAR VOLUME” value [3] was 63.4 fL, the MONOCYTE [3] was 0% and the NEUTROPHIL [3] was 7.67%. For the same molecule, the “NUCLEATED RED BLOOD CELLS” value [3] was 0 /100WBC, the “PLATELET COUNT” value [3] was 1069.33 x10E3/uL and the “ALANINE AMINOTRANSFERASE” value [3] was 63.33 u/L. The ALBUMIN [3] was 3.97 G/DL, the “ALKALINE PHOSPHATASE” value [3] was 478 u/L and the “ASPARTATE AMINOTRANSFERASE” value [3] was 92 u/L. For the same molecule, the “BLOOD UREA NITROGEN” value [3] was 11.33 mg/dL, the “CARBON DIOXIDE” value [3] was 29.67 mmol/L and the CHLORIDE [3] was 98.33 MEQ/L. For the same molecule, the CHOLESTEROL [3] was 40.67 mg/dL, the “CREATINE PHOSPHOKINASE” value [3] was 375.33 u/L and the CREATININE [3] was 0.14 mg/dL. The GLUCOSE [3] was 160 mg/dL, the “LACTATE DEHYDROGENASE” value [3] was 97.33 u/L and the LIPASE [3] was 9 u/L. For the same molecule, the PHOSPHORUS [3] was 11.03 mg/dL, the POTASSIUM [3] was 5.44 MEQ/L and the SODIUM [3] was 144.03 MEQ/L. For the same molecule, the “TOTAL BILIRUBIN” value [3] was 0.13 mg/dL, the “TOTAL PROTEIN” value [3] was 6.13 G/DL and the “URIC ACID” value [3] was 0.43 mg/dL.
